Literature values, collected in US20170112856A1, “PHARMACEUTICAL COMPOSITION FOR TREATING CANCER IN AN INDIVIDUAL SUBJECT SUFFERING CANCER” (MA SHEN KAI RUEI CO., LTD., priority 2015, published 2017).

Columns and labels:
[1] = system: murine macrophages RAW264.7; conditions: LPS-induction
[2] = system: human HL60 leukemia cells
[3] = system: human colorectal cancer cells (COLO 205)
[4] = system: normal intestinal epithelial cells (FHC cells)

Compound	amount of free radicals of nitric oxide [1]	also measured
Cc1cc(O)c2c(c1O)OCO2 [2,3-(methylenedioxy)-6-methyl-benzene-1,4-diol]	effectively reducing	–
C=C(CC[C@@H](C)[C@H]1CC[C@H]2C3=C(C(=O)C[C@]12C)[C@@]1(C)CCC(=O)[C@@H](C)C1CC3=O)C(C)C(=O)O (stereo partly drawn) [Zhankuic acid A, 4 α-methylergost-8,24(28)-dien-3,7,11-trion-26-oic acid]	–	apoptosis [2]: inducing apoptosis
COc1cc(C)c(OC)c2c1OCO2 [SY-1]	–	programmed death of cell ([3]; COLO 205, higher doses): induce programmed death of cell; cell cycle ([3]; COLO 205, lower doses): remain in the G0/G1 phase; impact on normal cells [4]: does not have an impact
4-acetyl-Antroquinonol B [Composition 4-acetyl-AQB]	effectively reducing	–
COc1cc(C)c(O)c(OC)c1O [2,4-dimethoxy-6-methyl-benzene-1,3-diol]	effectively reducing	–
Antroquinonol B [AQB]	effectively reducing	–
